Patent US10092537B2, “Use for PAI-1 inhibitor” (RENASCIENCE CO., LTD., priority 2013, dated 2018)

Legend:
human PAI-1 [1] = molecular target: T1, human PAI-1 (Homo sapiens, UniProt P05121); assay: Measurement of PAI-1 inhibitory activity of compound group 1 (t-PA, Spectrozyme t-PA chromogenic substrate); conditions: for activity at 2.5 µM / activity at 10 µM: read-out: PAI-1 activity %; for PAI-1 activity %: PAI-1 activity of the system without compound after 120 minutes taken as 100%
Method: Subsequently, human-derived tissue plasminogen activator (t-PA) (manufactured by American Diagnostica, Inc. (USA); the same applies hereinafter) adjusted to 0.05 pmol/μL was added thereto, and the mixture was further incubated at 37° C. for 60 minutes. Then, 0.25 mM of Spectrozyme t-PA synthetic substrate (manufactured by American Diagnostica, Inc. (USA); the same applies hereinafter), which is a chromogenic substrate, was added. The final mixture contained 50 mM Tris-HCl (pH 8), 150 mM NaCl, 1% DMSO, 0.1% PEG-6000, 0.2 mM CHAPS, 5 nM PAI-1, 2 nM t-PA, 0.2 mM Spectrozyme t-PA synthetic substrate, and each compound (10 μM or 2.5 μM).
Free radical p-nitroaniline removed from the chromogenic substrate (Spectrozyme t-PA) by t-PA action was measured using a spectrophotometer at an absorbance of 405 nm at 20-minute intervals, for 120 minutes.

human PAI-1 [2] = molecular target: T1, human PAI-1; assay: Measurement of PAI-1 inhibitory activity of compound group 3 (t-PA, S-2288 chromogenic substrate; Table 4)
Method: Subsequently, tissue plasminogen activator (t-PA) (manufactured by American Diagnostica, Inc. (USA); the same applies hereinafter) adjusted to 0.3 pmol/μL was added thereto, and further incubated at 37° C. for 15 minutes.

human PAI-1 [3] = molecular target: T1, human PAI-1; assay: Measurement of PAI-1 inhibitory activity of compound group 2 (t-PA, S-2288 chromogenic substrate); conditions: PAI-1 activity of the system without compound after 30 minutes taken as 100%
Method: Subsequently, human-derived tissue plasminogen activator (t-PA) (manufactured by American Diagnostica, Inc. (USA); the same applies hereinafter) adjusted to 0.3 pmol/μL was added thereto, and the mixture was further incubated at 37° C. for 15 minutes.

human PAI-1 [4] = molecular target: T1, human PAI-1; assay: Measurement of PAI-1 inhibitory activity of compound group 1 (t-PA, S-2288 chromogenic substrate); conditions: read-out: PAI-1 activity %
Method: Subsequently, human-derived tissue plasminogen activator (t-PA) (manufactured by American Diagnostica, Inc. (USA); the same applies hereinafter) adjusted to 0.35 pmol/μL was added thereto, and the mixture was further incubated at 37° C. for 15 minutes.

T1 sequence (P05121 24-402): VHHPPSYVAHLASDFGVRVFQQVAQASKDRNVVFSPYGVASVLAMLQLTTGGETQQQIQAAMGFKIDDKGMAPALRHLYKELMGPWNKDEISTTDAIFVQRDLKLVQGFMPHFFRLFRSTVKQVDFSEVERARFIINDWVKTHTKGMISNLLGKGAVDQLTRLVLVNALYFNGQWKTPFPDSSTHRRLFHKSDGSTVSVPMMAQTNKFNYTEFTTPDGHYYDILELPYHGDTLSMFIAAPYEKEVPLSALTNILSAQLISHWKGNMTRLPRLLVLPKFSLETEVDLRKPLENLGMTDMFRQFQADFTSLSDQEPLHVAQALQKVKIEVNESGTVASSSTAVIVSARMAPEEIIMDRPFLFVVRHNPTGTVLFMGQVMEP

O=C(Nc1ccc(Cl)cc1C(=O)[O-])c1cccc(-c2cnc3ccccc3c2)c1.[Na+] [Example 63, sodium 5-chloro-2-({[3-(quinolin-3-yl)phenyl]carbonyl}amino)benzoate]
activity at 2.5 µM (human PAI-1 [1]): 21.3%
activity at 10 µM (human PAI-1 [1]): 0.3%
PAI-1 activity % (human PAI-1 [2]; compound concentration 20 μM): 64.3%
PAI-1 activity % (human PAI-1 [2]; compound concentration 50 μM): 10.6%
PAI-1 activity % (human PAI-1 [3]; compound 20 μM): 78.2%
PAI-1 activity % (human PAI-1 [3]; compound 50 μM): 21.4%

O=C(Nc1ccc(Cl)cc1C(=O)[O-])c1cccc(-c2cncc3ccccc23)c1.[Na+] [Example 64, sodium 5-chloro-2-({[3-(isoquinolin-4-yl)phenyl]carbonyl}amino)benzoate]
activity at 2.5 µM (human PAI-1 [1]): 74.3%
activity at 10 µM (human PAI-1 [1]): 0.7%
PAI-1 activity % (human PAI-1 [2]; compound concentration 20 μM): 71.6%
PAI-1 activity % (human PAI-1 [2]; compound concentration 50 μM): 19.2%
PAI-1 activity % (human PAI-1 [3]; compound 20 μM): 62.7%
PAI-1 activity % (human PAI-1 [3]; compound 50 μM): 7.5%

O=C(Nc1ccc(Cl)cc1C(=O)[O-])c1cccc(-c2ccc3ncccc3c2)c1.[Na+] [Example 65, sodium 5-chloro-2-({[3-(quinolin-6-yl)phenyl]carbonyl}amino)benzoate]
activity at 2.5 µM (human PAI-1 [1]): 71.7%
activity at 10 µM (human PAI-1 [1]): 0.4%
PAI-1 activity % (human PAI-1 [2]; compound concentration 20 μM): 86.0%
PAI-1 activity % (human PAI-1 [2]; compound concentration 50 μM): 25.4%
PAI-1 activity % (human PAI-1 [3]; compound 20 μM): 76.9%
PAI-1 activity % (human PAI-1 [3]; compound 50 μM): 10.8%

O=C(Nc1ccc(Cl)cc1C(=O)[O-])c1cccc(-c2cccc3cnccc23)c1.[Na+] [Example 66, sodium 5-chloro-2-({[3-(isoquinolin-5-yl)phenyl]carbonyl}amino)benzoate]
activity at 2.5 µM (human PAI-1 [1]): 22.6%
activity at 10 µM (human PAI-1 [1]): 0.1%
PAI-1 activity % (human PAI-1 [2]; compound concentration 20 μM): 59.2%
PAI-1 activity % (human PAI-1 [2]; compound concentration 50 μM): 17.7%
PAI-1 activity % (human PAI-1 [3]; compound 20 μM): 97.7%
PAI-1 activity % (human PAI-1 [3]; compound 50 μM): 13.1%

O=C([O-])c1cc(Cl)ccc1NC(=O)C1CCCN(C(=O)c2cccc(-c3ccoc3)c2)C1.[Na+] (stereo not shown) [Example 11, sodium 5-chloro-2-{[(1-{[3-(furan-3-yl)phenyl]carbonyl}piperidin-3-yl)carbonyl]amino}benzoate]
PAI-1 activity % (human PAI-1 [2]; compound concentration 20 μM): 64.7%
PAI-1 activity % (human PAI-1 [2]; compound concentration 50 μM): 11.5%
activity at 20 µM (human PAI-1 [4]): 68.2%
activity at 50 µM (human PAI-1 [4]): 26.1%
PAI-1 activity % (human PAI-1 [3]; compound 50 μM): 99.3%
PAI-1 activity % (human PAI-1 [3]; compound 100 μM): 20.7%

Cc1sc(NC(=O)c2cccc(-c3ccoc3)c2)c(C(=O)O)c1-c1ccccc1 [Example 5, 2-({[3-(furan-3-yl)phenyl]carbonyl}amino)-5-methyl-4-phenylthiophene-3-carboxylic acid]
activity at 2.5 µM (human PAI-1 [1]): 46.4%
activity at 10 µM (human PAI-1 [1]): 0.3%
activity at 20 µM (human PAI-1 [4]): 14.7%
activity at 50 µM (human PAI-1 [4]): 6.1%

CC(C)(C)c1ccc(C(=O)Nc2ccc(Cl)cc2C(=O)O)cc1 [Known compound (1), 2-{[(4-tert-butylphenyl)carbonyl]amino}-5-chlorobenzoic acid, reference compound]
activity at 2.5 µM (human PAI-1 [1]): 100%
activity at 10 µM (human PAI-1 [1]): 12.7%
activity at 20 µM (human PAI-1 [4]): 44%
activity at 50 µM (human PAI-1 [4]): 11%

5-chloro-2-({[4-(pyrrolidin-1-yl)phenyl]carbonyl}amino)benzoic acid hydrochloride [Example 83]
PAI-1 activity % (human PAI-1 [3]; compound 20 μM): 99.8%
PAI-1 activity % (human PAI-1 [3]; compound 50 μM): 77.8%

5-chloro-2-({[4-(diphenylmethyl)piperazin-1-yl]carbonyl}amino)benzoic acid hydrochloride [Example 75]
PAI-1 activity % (human PAI-1 [2]; compound concentration 20 μM): 46.1%
PAI-1 activity % (human PAI-1 [3]; compound 20 μM): 91.3%
PAI-1 activity % (human PAI-1 [3]; compound 50 μM): 13.3%

O=C(Nc1ccc(Cl)cc1C(=O)[O-])c1cccc(-c2cccc3cccnc23)c1.[Na+] [Example 68, sodium 5-chloro-2-({[3-(quinolin-8-yl)phenyl]carbonyl}amino)benzoate]
activity at 2.5 µM (human PAI-1 [1]): 2.4%
activity at 10 µM (human PAI-1 [1]): 2.1%
PAI-1 activity % (human PAI-1 [2]; compound concentration 20 μM): 20.7%
PAI-1 activity % (human PAI-1 [2]; compound concentration 50 μM): 9.4%
PAI-1 activity % (human PAI-1 [3]; compound 20 μM): 99.8%
PAI-1 activity % (human PAI-1 [3]; compound 50 μM): 66.3%

O=C(Nc1ccc(Cl)cc1C(=O)[O-])c1ccc(-c2cccc3cccnc23)cc1.[Na+] [Example 67, sodium 5-chloro-2-({[4-(quinolin-8-yl)phenyl]carbonyl}amino)benzoate]
activity at 2.5 µM (human PAI-1 [1]): 90.4%
activity at 10 µM (human PAI-1 [1]): 0.6%
PAI-1 activity % (human PAI-1 [2]; compound concentration 20 μM): 57.6%
PAI-1 activity % (human PAI-1 [2]; compound concentration 50 μM): 8.1%
PAI-1 activity % (human PAI-1 [3]; compound 20 μM): 99.8%
PAI-1 activity % (human PAI-1 [3]; compound 50 μM): 75.0%

O=C(Nc1ccc(Cl)cc1C(=O)[O-])c1cccc(-c2ccncc2)c1.[Na+] [Example 8, sodium 5-chloro-2-({[3-(pyridin-4-yl)phenyl]carbonyl}amino)benzoate]
activity at 2.5 µM (human PAI-1 [1]): 100%
activity at 10 µM (human PAI-1 [1]): 28.5%
PAI-1 activity % (human PAI-1 [2]; compound concentration 20 μM): 95.6%
PAI-1 activity % (human PAI-1 [2]; compound concentration 50 μM): 12.4%
PAI-1 activity % (human PAI-1 [3]; compound 50 μM): 12.9%
PAI-1 activity % (human PAI-1 [3]; compound 100 μM): 9.3%

O=C(COc1cccc(-c2ccccc2)c1)Nc1ccc(-c2ccccc2)cc1C(=O)O [Example 45]
PAI-1 activity % (human PAI-1 [1]; compound 2.5 μM): 76.9%
PAI-1 activity % (human PAI-1 [1]; compound 10 μM): 0.9%
PAI-1 activity % (human PAI-1 [2]; compound concentration 20 μM): 47.8%
PAI-1 activity % (human PAI-1 [2]; compound concentration 50 μM): 8.4%
PAI-1 activity % (human PAI-1 [3]; compound 20 μM): 79.6%
PAI-1 activity % (human PAI-1 [3]; compound 50 μM): 7.7%

O=C(COc1ccc(-c2ccccc2)cc1)Nc1ccc(-c2ccoc2)cc1C(=O)O [Example 46]
PAI-1 activity % (human PAI-1 [1]; compound 2.5 μM): 69.9%
PAI-1 activity % (human PAI-1 [1]; compound 10 μM): 0.4%
PAI-1 activity % (human PAI-1 [2]; compound concentration 20 μM): 83.9%
PAI-1 activity % (human PAI-1 [2]; compound concentration 50 μM): 47.3%
PAI-1 activity % (human PAI-1 [3]; compound 20 μM): 85.4%
PAI-1 activity % (human PAI-1 [3]; compound 50 μM): 8.4%

Cn1cc(C(=O)C(=O)Nc2ccc(Cl)cc2C(=O)O)c2cc(-c3ccoc3)ccc21 [Example 14, 5-chloro-2-({[5-(furan-3-yl)-1-methyl-1H-indol-3-yl](oxo)acetyl}amino)benzoic acid]
activity at 2.5 µM (human PAI-1 [1]): 87.4%
activity at 10 µM (human PAI-1 [1]): 4.3%
activity at 20 µM (human PAI-1 [4]): 22.1%
activity at 50 µM (human PAI-1 [4]): 12.9%

CC(C(=O)Nc1ccc(Cl)cc1C(=O)O)(c1ccccc1)c1ccccc1 [Example 39]
PAI-1 activity % (human PAI-1 [1]; compound 2.5 μM): 88.6%
PAI-1 activity % (human PAI-1 [1]; compound 10 μM): 22.1%
PAI-1 activity % (human PAI-1 [2]; compound concentration 20 μM): 64.3%
PAI-1 activity % (human PAI-1 [2]; compound concentration 50 μM): 6.9%
PAI-1 activity % (human PAI-1 [3]; compound 100 μM): 36.1%

O=C(O)c1cc(Cl)ccc1NC(=O)C1CCCN(C(=O)Cc2cccc(-c3ccoc3)c2)C1 (stereo not shown) [Example 12, 5-chloro-2-{[(1-{[3-(furan-3-yl)phenyl]acetyl}piperidin-3-yl)carbonyl]amino}benzoic acid]
activity at 20 µM (human PAI-1 [4]): 57.7%
activity at 50 µM (human PAI-1 [4]): 15.7%

O=C(Nc1ccc(Cl)cc1C(=O)O)c1ccc(-c2ccccc2)cc1 [Known compound (2), 2-[(biphenyl-4-ylcarbonyl)amino]-5-chlorobenzoic acid, reference compound]
activity at 2.5 µM (human PAI-1 [1]): 70.7%
activity at 10 µM (human PAI-1 [1]): 0.2%
activity at 20 µM (human PAI-1 [4]): 41.8%
activity at 50 µM (human PAI-1 [4]): 8%

O=C(Nc1ccc(Cl)cc1C(=O)O)c1ccc(-c2cccs2)cc1 [Example 7, 5-chloro-2-({[4-(thiophen-2-yl)phenyl]carbonyl}amino)benzoic acid]
activity at 2.5 µM (human PAI-1 [1]): 99.8%
activity at 10 µM (human PAI-1 [1]): 0.4%
activity at 20 µM (human PAI-1 [4]): 54.2%
activity at 50 µM (human PAI-1 [4]): 7.4%

O=C(Cc1cccc(-c2ccoc2)c1)Nc1ccc(Cl)cc1C(=O)O [Example 3, 5-chloro-2-({[3-(furan-3-yl)phenyl]acetyl}amino)benzoic acid]
activity at 20 µM (human PAI-1 [4]): 63.7%
activity at 50 µM (human PAI-1 [4]): 19.6%
